Data taken from US5025099A, “(3-amino-1-propynyl)methylthiothiophene derivatives” (American Cyanamid Company, priority 1990, dated 1991).
Several values for one entry are separate records, joined by “and”; a condition that tells them apart may be missing. Identical values can stand only once. Counter-ions that a name gives are not always drawn.

Assays:
[1] = target: muscarinic cholinergic receptor; test: [^3 H] Quinuclidinyl Benzilate (^3 H-QNB) Binding Assay, rat cerebral cortex homogenate; conditions: pH 7.4
[2] = target: muscarinic cholinergic receptor; test: [^3 H]-Cis-methyldioxolane (^3 H-CD) Binding Assay (High Affinity), rat cerebral cortex homogenate; conditions: 1.0 nM ^3 H-CD, 25° C., 120 minutes
SDAT patients = conditions: compared to the anticholinesterase inhibitor physostigmine; cited from earlier work
muscarinic sites = conditions: cited from earlier work
[3] = rat cerebral cortex, 0.25 nM ^3 H-QNB, 25° C., hydrochloride
[4] = rat cerebral cortex, 0.25 nM ^3 H-QNB, 25° C.

Row | IC50 [1, 3] | IC50 ([2]; pH 7.4, hydrochloride) | IC50 [1, 4] | IC50 ([2]; pH 7.4) | SMILES | further results
1 | 40400 nM | 1240 nM | – | – | CSc1ccsc1C#CCN(C)C [N,N-Dimethyl-3-[3-(methylthio)-2-thienyl]-2-propyn-1-amine, hydrochloride] | –
2 | – | – | 5980 nM | 5.92 nM | CSc1ccsc1C#CC[N+](C)(C)C [N,N,N-Trimethyl-3-[3-(methylthio)-2-thienyl]-2-propyn-1-aminium, iodide] | –
3 | – | – | 239000 nM | 4830 nM | CSc1cscc1C#CCN(C)C [N,N-Dimethyl-3-[4-(methylthio)-3-thienyl]-2-propyn-1-amine] | –
4 | – | – | 35000 nM | 1120 nM | CSc1ccsc1C#CCN(C)C [N,N-Dimethyl-3-[3-(methylthio)-2-thienyl]-2-propyn-1-amine] | –
5 | – | – | 21400 nM | 942 nM | CSc1sccc1C#CCN(C)C [N,N-Dimethyl-3-[2-(methylthio)-3-thienyl]-2-propyn-1-amine] | –
6 | 67500 nM | 1230 nM | – | – | CSc1cscc1C#CCN(C)C [N,N-Dimethyl-3-[4-(methylthio)-3-thienyl]-2-propyn-1-amine, hydrochloride] | –
7 | 23300 nM | 969 nM | – | – | CSc1sccc1C#CCN(C)C [N,N-Dimethyl-3-[2-(methylthio)-3-thienyl]-2-propyn-1-amine, hydrochloride] | –

The next lines start with the compound.

Row | SMILES | IC50 [1, 3] | IC50 ([2]; pH 7.4, hydrochloride) | IC50 [1, 4] | IC50 ([2]; pH 7.4) | further results
8 | CSc1sccc1C#CCN1CCCCC1 [1-[3-[2-(Methylthio)-3-thienyl]-2-propynyl]piperidine, hydrochloride] | 2200 nM | 32.5 nM | – | – | –
9 | CSc1ccsc1C#CCN1CCCCC1 [1-[3-[3-(Methylthio)-2-thienyl]-2-propynyl]piperidine] | – | – | 1970 nM | 122 nM | –
10 | CSc1ccsc1C#CCN1CCCCC1 [1-[3-[3-(Methylthio)-2-thienyl]-2-propynyl]piperidine, hydrochloride] | 2100 nM | 44 nM | – | – | –
11 | CSc1ccsc1C#CCN1CCCC1 [1-[3-[3-(Methylthio)-2-thienyl]-2-propynyl]pyrrolidine] | – | – | 1380 nM | 16 nM | –
12 | CSc1cscc1C#CCN1CCCC1 [1-[3-[4-(Methylthio)-3-thienyl]-2-propynyl]pyrrolidine] | – | – | 3340 nM | 366 nM | –
13 | CSc1sccc1C#CCN1CCCC1 [1-[3-[2-(Methylthio)-3-thienyl]-2-propynyl]pyrrolidine, hydrochloride] | 810 nM | – | – | – | –
14 | CSc1cscc1C#CCN1CCCC1 [1-[3-[4-(Methylthio)-3-thienyl]-2-propynyl]pyrrolidine, hydrochloride] | 2270 nM | 110 nM | – | – | –
15 | CSc1sccc1C#CC[N+](C)(C)C [N,N,N-Trimethyl-3-[2-(methylthio)-3-thienyl]-2-propyn-1-aminium, iodide] | – | – | 3440 nM | 52.3 nM | –
16 | CSc1cscc1C#CCN1CCCCC1 [1-[3-[4-(Methylthio)-3-thienyl]-2-propynyl]piperidine] | – | – | 5350 nM and 5880 nM | 998 nM and 530 nM | –
17 | COC(=O)C1=CCCN(C)C1 [arecoline] | – | – | – | – | improvement in SDAT patients (SDAT patients): more-consistent improvement
18 | CSc1cscc1C#CC[N+](C)(C)C [N,N,N-Trimethyl-3-[4-(methylthio)-3-thienyl]-2-propyn-1-aminium, iodide] | – | – | – | 121 nM | IC50 [1]: 9050 nM
19 | CSc1ccsc1C#CCN1CCCC1 [1-[3-[3-(Methylthio)-2-thienyl]-2-propynyl]pyrrolidine, hydrochloride] | 1870 nM | 44 nM | – | – | –
20 | CC(=O)N(C)C(C)C#CCN1CCCC1 (stereo not shown) [BM-5, N-methyl-N-(1-methyl-4-pyrrolidino-2-butynyl)acetamide] | – | – | – | – | activity at muscarinic sites (muscarinic sites; Eur. J. Med. Chem., 1982, 17, 317): antagonist at some muscarinic sites while being an agonist at most others; postsynaptic cholinergic activity (muscarinic sites; postsynaptic): postsynaptic partial cholinergic agonist; presynaptic cholinergic activity (muscarinic sites; presynaptic): presynaptic cholinergic antagonist
21 | CSc1sccc1C#CCN1CCCC1 [1-[3-[2-(Methylthio)-3-thienyl]-2-propynyl]pyrrolidine] | – | – | 920 nM | 31 nM | –
22 | CSc1sccc1C#CCN1CCCCC1 [1-[3-[2-(Methylthio)-3-thienyl]-2-propynyl]piperidine] | – | – | 1140 nM | 31.1 nM | –
